This assay relates to IRE1-XBP1s (XBP1-RLuc splicing reporter in HEK293 T-REx cells). The assay is described as follows: IRE1-XBP1s activation assay (XBP1-RLuc splicing reporter, HEK293 T-REx cells, luminescence relative to thapsigargin). The format is cell-based. The following applies: 18 h, read-out: Activity (IRE1-XBP1s activation, luminescence as % signal relative to thapsigargin, % Tg). The method, then: IRE1-XBP1s activation Assay: HEK293 T-REx cells stably expressing the XBP1-RLuc splicing reporter were treated with an IRE1-XBP1s activator provided herein (10 μM) in the presence or absence of the IRE1 active site inhibitor 4μ8C (32 μM) for 18 h. Luminescence was shown as the percentage signal relative to thapsigargin (Tg) (500 nM, 18 h).

Where [1] appears, read: compound 10 μM, HEK293 T-REx XBP1-RLuc reporter cells, relative to thapsigargin (Tg) 500 nM.

Results on 47 molecules are retold here after patent US20260193236A1 (Protego Biopharma, Inc., priority 2022, published 2026).

Read-outs that look alike come from different tables or passages of the source.

With `Cc1ccc(OCC(C)(C)N(C)C(=O)Cn2cc(NC(=O)CCOc3ccccc3F)cn2)cc1` [Compound 63], the activation at 10 µM was above 50%.
Regarding `Cc1ccc(OCCN(C)C(=O)Cn2cc(NC(=O)CCOc3ccc(F)cc3C)c(C)n2)cc1` [Compound 65], the activation at 10 µM under setting [1] was below 30%.
As to `Cc1ccc(OCCN(C)C(=O)Cn2cc(NC(=O)CCOc3ccc(F)cc3C(C)C)cn2)cc1` [Compound 66], the activation at 10 µM under setting [1] is above 50%.
Regarding `Cc1ccc(OCCC(=O)Nc2cnn(CC(=O)N(C)CCOc3ccc(C(F)(F)F)cc3)c2)c(F)c1` [Compound 67], the activation at 10 µM under setting [1] is below 30%.
The same measure, in the same setting: the value for `Cc1ccc(OCCN(C)C(=O)Cn2cc(NC(=O)CCOc3ncc(F)cc3C)cn2)cc1` [Compound 68] was below 30%; that for `Cc1ccc(OCCC(=O)Nc2cnn(CC(=O)N(C)CCOc3cccc(OC(F)(F)F)c3)c2)c(F)c1` [Compound 69] was below 30%; that for `Cc1ccc(OCCC(=O)Nc2cnn(CC(=O)N(C)CCOc3ccc(F)c(F)c3)c2)c(F)c1` [Compound 70] was below 30%.
`Cc1ccc(OCCC(=O)Nc2cnn(CC(=O)N(C)CCOc3ccc(Cl)cc3)c2)c(F)c1` [Compound 71]: under setting [1], the activation at 10 µM is below 30%.
For the molecule `Cc1ccc(OCCC(=O)Nc2cnn(CC(=O)N(C)CCOc3ccc(F)c(Cl)c3)c2)c(F)c1` [Compound 72], under setting [1], the activation at 10 µM is below 30%.
Regarding `Cc1ccc(OCCC(=O)Nc2cnn(CC(=O)N(C)CCOc3ccc(C4CC4)cc3)c2)c(F)c1` [Compound 73], under setting [1], the activation at 10 µM lay within 30 to 50%.
For the molecule `COc1cccc(OCCN(C)C(=O)Cn2cc(NC(=O)CCOc3ccc(C)cc3F)cn2)c1` [Compound 74], the activation at 10 µM under setting [1] is below 30%.
For `Cc1ccc(OCCC(=O)Nc2cnn(CC(=O)N(C)CCOc3ccc(F)cc3)c2)c(F)c1` [Compound 75], under setting [1], the activation at 10 µM was below 30%.
For the molecule `Cc1ccc(OCCC(=O)Nc2cnn(CC(=O)N(C)CCOc3ccc(C)c(Cl)c3)c2)c(F)c1` [Compound 76], under setting [1], the activation at 10 µM is below 30%.
Regarding `COc1ccc(OCCN(C)C(=O)Cn2cc(NC(=O)CCOc3ccc(C)cc3F)cn2)cc1` [Compound 77], the activation at 10 µM under setting [1] was below 30%.
As for `Cc1ccc(OCCC(=O)Nc2cnn(CC(=O)N(C)CCOc3ccc(F)c(OC(F)(F)F)c3)c2)c(F)c1` [Compound 78], the activation at 10 µM under setting [1] was below 30%.
As to `Cc1ccc(OCCC(=O)Nc2cnn(CC(=O)N(C)CCOc3ccc(C)c(C(F)(F)F)c3)c2)c(F)c1` [Compound 79], under setting [1], the activation at 10 µM is below 30%.
Still for that read-out and setting: under `Cc1ccc(OCCC(=O)Nc2cnn(CC(=O)N(C)CCOc3ncc(F)cc3F)c2)c(F)c1` [Compound 80] stands below 30%.
On to `Cc1ccc(OC[C@H](C)N(C)C(=O)Cn2cc(NC(=O)CCOc3c(F)cccc3F)cn2)cc1` [Compound 81], for which the activation at 10 µM under setting [1] is above 50%.
Same read-out and setting: under `Cc1ccc(OC[C@@H](C)N(C)C(=O)Cn2cc(NC(=O)CCOc3c(F)cccc3F)cn2)cc1` [Compound 82] stands above 50%; under `Cc1ccc(OCCN(C)C(=O)Cn2cc(NC(=O)CNCc3cccnc3N)cn2)cc1` [Compound 83], below 30%; under `Cc1ccc(OCCN(C)C(=O)Cn2cc(NC(=O)COCc3cccnc3N)cn2)cc1` [Compound 84], below 30%.
On to `Cc1ccc(OCCC(=O)Nc2cnn(CC(=O)N(C)CCOc3cc(F)c(C)c(F)c3)c2)c(F)c1` [Compound 85], for which the activation at 10 µM under setting [1] was above 50%.
For `Cc1ccc(OCCC(=O)Nc2cnn(CC(=O)N(C)CCOc3ccc(C(F)F)cc3)c2)c(F)c1` [Compound 86], the activation at 10 µM under setting [1] is above 50%.
As to `Cc1cc(F)ccc1OCCC(=O)Nc1cnn(CC(=O)N(C)CCOc2ccc(C(=O)O)cc2)c1` [Compound 88], the activation at 10 µM under setting [1] is below 30%.
Turning to `Cc1ccc(OCCC(=O)Nc2cnn(CC(=O)N(C)CCOc3ccc(C4(F)CC4)cc3)c2)c(F)c1` [Compound 89], the activation at 10 µM under setting [1] was below 30%.
On the same count and under the same terms, the value for `Cc1ccc(OCCC(=O)Nc2cnn(CC(=O)N(C)CCOc3ncn(C)n3)c2)c(F)c1` [Compound 90] was below 30%; that for `[2H]C([2H])([2H])c1ccc(OCCN(C)C(=O)Cn2cc(NC(=O)CCOc3ccc(C)cc3F)cn2)cc1` [Compound 91] was 30 to 50%.
On the same count and under the same terms, the value for `Cc1ccc(OCCN(C)C(=O)Cn2cc(NC(=O)CCCc3ccccc3)cn2)cc1` [Compound 92, N-(1-(2-(methyl(2-(p-tolyloxy)ethyl)amino)-2-oxoethyl)-1H-pyrazol-4-yl)-4-phenylbutanamide] was below 30%.
`Cc1ccc(OCCN(C)C(=O)Cn2cc(NC(=O)CCNc3ncc(C)cn3)cn2)cc1` [Compound 93]: under setting [1], the activation at 10 µM was below 30%.
Still for that read-out and setting: under `CN(CCOc1ccc(C(F)(F)F)cn1)C(=O)Cn1cc(NC(=O)CCOc2ccc(Cl)cc2F)cn1` [Compound 94] stands 30 to 50%; under `CN(CCOc1ccc(C(F)(F)F)cn1)C(=O)Cn1cc(NC(=O)CCOc2ccnc(N)c2)cn1` [Compound 95], below 30%; under `COc1ccc(OCCN(C)C(=O)Cn2cc(NC(=O)CCOc3ccnc(F)c3)cn2)cc1` [Compound 96], below 30%.
In the case of `Cc1ccc(OCCN(C)C(=O)Cn2cc(NC(=O)CCOc3c(F)cncc3Br)cn2)cc1` [Compound 97], the activation at 10 µM under setting [1] is below 30%.
Turning to `Cc1ccc(OCCN(C)C(=O)Cn2cc(NC(=O)CCOc3ccnc(Br)c3)cn2)cc1` [Compound 98], the activation at 10 µM under setting [1] is above 50%.
In the case of `Cc1ccc(OCCN(C)C(=O)Cn2cc(NC(=O)CCOc3ccnc(N)n3)cn2)cc1` [Compound 99], the activation at 10 µM under setting [1] is above 50%.
On to `Cc1ccc(OCCN(C)C(=O)Cn2cc(NC(=O)CCOc3cccc(Br)n3)cn2)cc1` [Compound 100], for which the activation at 10 µM under setting [1] is above 50%.
For the molecule `Cc1ccc(OCCN(C)C(=O)Cn2cc(NC(=O)CCOc3ccnc(NC(=O)OC(C)(C)C)c3)cn2)cc1` [Compound 101], under setting [1], the activation at 10 µM was above 50%.
Take `Cc1ccc(OCCN(C)C(=O)Cn2cc(NC(=O)CCOc3cccc(NC(=O)OC(C)(C)C)n3)cn2)cc1` [Compound 102]: the activation at 10 µM under setting [1] is above 50%.
For `Cc1ccc(OCCN(C)C(=O)Cn2cc(NC(=O)CCOc3cccc(N)n3)cn2)cc1` [Compound 103], under setting [1], the activation at 10 µM is above 50%.
In the case of `Cc1ccc(OCCN(C)C(=O)Cn2cc(NC(=O)CCOc3ccnc(N)c3)cn2)cc1` [Compound 104], under setting [1], the activation at 10 µM was above 50%.
For `Cc1ccc(OCCN(C)C(=O)Cn2cc(NC(=O)CCOc3cccc(C)n3)cn2)cc1` [Compound 105], the activation at 10 µM under setting [1] was above 50%.
Regarding `CNc1nccc(OCCC(=O)Nc2cnn(CC(=O)N(C)CCOc3ccc(C)cc3)c2)n1` [Compound 106], the activation at 10 µM under setting [1] is above 50%.
For `C=C(C)c1cccc(OCCC(=O)Nc2cnn(CC(=O)N(C)CCOc3ccc(C)cc3)c2)n1` [Compound 107], the activation at 10 µM under setting [1] was below 30%.
Take `Cc1ccc(OCCN(C)C(=O)Cn2cc(NC(=O)CCOc3cccc(C(C)C)n3)cn2)cc1` [Compound 108]: the activation at 10 µM under setting [1] was below 30%.
Take `Cc1ccc(OCCN(C)C(=O)Cn2cc(NC(=O)CCOc3ncncc3N)cn2)cc1` [Compound 109]: the activation at 10 µM under setting [1] is above 50%.
Consider `Cc1ccc(OCCN(C)C(=O)Cn2cc(NC(=O)CCOc3ccncc3[N+](=O)[O-])cn2)cc1` [Compound 111], for which, under setting [1], the activation at 10 µM was below 30%.
Still for that read-out and setting: under `Cc1ccc(OCCN(C)C(=O)Cn2cc(NC(=O)CCOc3ccncc3N)cn2)cc1` [Compound 112] stands 30 to 50%.
